PubChem BioAssay (NCI)
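Grown in 96-well plates, cells were treated for 48 hours with each compound at five concentrations. Insufficient inhibition: endpoint recorded as highest concentration tested. TGI: concentration producing complete growth inhibition.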

Tested on: A498 renal
Assay: growth of human tumour cells (NCI), 48 h

Compound	TGI
CCCCCCCCCCCCCCCCNC(=O)/C(=C\c1ccc(Cl)c(Cl)c1)NC(=O)c1ccccc1	35.5 µM
CC(C)[C@H]1NC(=O)[C@H]2N=C(S[C@H]2C)[C@@H]2CCCN2C(=O)[C@H](Cc2ccccc2)NC(=O)[C@@H]2CSC(=N2)[C@@H](Cc2ccccc2)NC(=O)[C@@H]2CSC1=N2	41.7 µM
O=C(Cn1c2ccc(Br)cc2c2nc3ccccc3nc21)Nc1ccccc1	> 100 µM
COC(=O)/C=C/[C@@H]1[C@H](C)N1S(=O)(=O)c1ccc(C)cc1 (some centres undefined)	> 100 µM
COc1cc([C@@H]2c3cc4c(cc3[C@@H](Nc3ccc(Cl)cc3C(=O)c3ccccc3)[C@H]3COC(=O)[C@H]23)OCO4)cc(OC)c1OC	5.27 µM
Cc1cc(O)c(/C=N/C(=S)Nc2ccc(S(N)(=O)=O)cc2)c(=O)o1	> 100 µM
CC(Oc1ccccc1Cl)C(=O)NN1C(=O)CC(=O)N(c2ccc(Cl)cc2)C1=S (centres undefined)	72.9 µM
Cc1ccc(S(=O)(=O)N2CCSCCSCCSCCN(S(=O)(=O)c3ccc(C)cc3)CC2)cc1	> 100 µM
CC(Oc1ccc(Cl)cc1Cl)C(=O)NN1C(=O)CC(=O)N(c2ccccc2)C1=S (centres undefined)	95.1 µM
CC(=O)/C(=C\I)c1ccccc1	32.3 µM
CCOC(=O)c1c[nH]c(C(=O)C=[N+]=[N-])c1C1CCN(CC)C1=S (centres undefined)	> 100 µM
O=c1[nH][nH]c(=O)c2c1ccc1oc3ccccc3c12	> 100 µM
O=C1CSC(c2ccccc2O)N1c1ccc(-n2c(-c3ccccc3)nc3ccccc3c2=O)cc1 (centres undefined)	> 100 µM
COc1cc(C2c3cc4c(cc3C(=O)C3CCC(=O)N32)OCO4)cc(OC)c1O (centres undefined)	> 50 µM

Tested on: A549 NSCLC
Assay: growth of human tumour cells (NCI), 48 h

Compound	TGI
CCCCCCCCCCCCCCCCNC(=O)/C(=C\c1ccc(Cl)c(Cl)c1)NC(=O)c1ccccc1	> 100 µM
O=C(Nc1ccccc1)OCCN=C1c2ccccc2CCc2ccccc21	> 100 µM
CC(C)[C@H]1NC(=O)[C@H]2N=C(S[C@H]2C)[C@@H]2CCCN2C(=O)[C@H](Cc2ccccc2)NC(=O)[C@@H]2CSC(=N2)[C@@H](Cc2ccccc2)NC(=O)[C@@H]2CSC1=N2	> 50 µM
O=C(Cn1c2ccc(Br)cc2c2nc3ccccc3nc21)Nc1ccccc1	38.2 µM
COC(=O)/C=C/[C@@H]1[C@H](C)N1S(=O)(=O)c1ccc(C)cc1 (some centres undefined)	> 100 µM
COc1cc([C@@H]2c3cc4c(cc3[C@@H](Nc3ccc(Cl)cc3C(=O)c3ccccc3)[C@H]3COC(=O)[C@H]23)OCO4)cc(OC)c1OC	> 100 µM
Cc1cc(O)c(/C=N/C(=S)Nc2ccc(S(N)(=O)=O)cc2)c(=O)o1	> 100 µM
Cc1nn(C(=O)c2ccncc2)c2c1C(c1ccccc1[N+](=O)[O-])SC(N)=N2 (centres undefined)	> 10 µM
Cn1nnc2c3c(N(CCO)CCO)ccnc3ccc21	> 100 µM
CC(Oc1ccccc1Cl)C(=O)NN1C(=O)CC(=O)N(c2ccc(Cl)cc2)C1=S (centres undefined)	> 100 µM
Cc1ccc(S(=O)(=O)N2CCSCCSCCSCCN(S(=O)(=O)c3ccc(C)cc3)CC2)cc1	> 100 µM
CC(Oc1ccc(Cl)cc1Cl)C(=O)NN1C(=O)CC(=O)N(c2ccccc2)C1=S (centres undefined)	> 100 µM
CC(=O)/C(=C\I)c1ccccc1	30 µM
CCOC(=O)c1c[nH]c(C(=O)C=[N+]=[N-])c1C1CCN(CC)C1=S (centres undefined)	> 100 µM
CC(=O)N1C(Nc2nccs2)CCN1c1ccccc1 (centres undefined)	> 10 µM
O=c1[nH][nH]c(=O)c2c1ccc1oc3ccccc3c12	> 100 µM
O=C1CSC(c2ccccc2O)N1c1ccc(-n2c(-c3ccccc3)nc3ccccc3c2=O)cc1 (centres undefined)	> 100 µM
O=C1NC2(CCNCC2)Oc2ccccc21	> 100 µM
CC(C)OP(=O)(OC(C)C)C(C)(C)O	> 100 µM
COc1cc(C2c3cc4c(cc3C(=O)C3CCC(=O)N32)OCO4)cc(OC)c1O (centres undefined)	> 50 µM

Tested on: ACHN renal
Assay: growth of human tumour cells (NCI), 48 h

Compound	TGI
CCCCCCCCCCCCCCCCNC(=O)/C(=C\c1ccc(Cl)c(Cl)c1)NC(=O)c1ccccc1	> 100 µM
O=C(Nc1ccccc1)OCCN=C1c2ccccc2CCc2ccccc21	70.1 µM
CC(C)[C@H]1NC(=O)[C@H]2N=C(S[C@H]2C)[C@@H]2CCCN2C(=O)[C@H](Cc2ccccc2)NC(=O)[C@@H]2CSC(=N2)[C@@H](Cc2ccccc2)NC(=O)[C@@H]2CSC1=N2	> 50 µM
O=C(Cn1c2ccc(Br)cc2c2nc3ccccc3nc21)Nc1ccccc1	> 100 µM
COC(=O)/C=C/[C@@H]1[C@H](C)N1S(=O)(=O)c1ccc(C)cc1 (some centres undefined)	> 100 µM
COc1cc([C@@H]2c3cc4c(cc3[C@@H](Nc3ccc(Cl)cc3C(=O)c3ccccc3)[C@H]3COC(=O)[C@H]23)OCO4)cc(OC)c1OC	> 100 µM
Cc1cc(O)c(/C=N/C(=S)Nc2ccc(S(N)(=O)=O)cc2)c(=O)o1	> 100 µM
Cc1nn(C(=O)c2ccncc2)c2c1C(c1ccccc1[N+](=O)[O-])SC(N)=N2 (centres undefined)	> 10 µM
Cn1nnc2c3c(N(CCO)CCO)ccnc3ccc21	> 100 µM
CC(Oc1ccccc1Cl)C(=O)NN1C(=O)CC(=O)N(c2ccc(Cl)cc2)C1=S (centres undefined)	> 100 µM
Cc1ccc(S(=O)(=O)N2CCSCCSCCSCCN(S(=O)(=O)c3ccc(C)cc3)CC2)cc1	> 100 µM
CC(Oc1ccc(Cl)cc1Cl)C(=O)NN1C(=O)CC(=O)N(c2ccccc2)C1=S (centres undefined)	> 100 µM
CCOC(=O)c1c[nH]c(C(=O)C=[N+]=[N-])c1C1CCN(CC)C1=S (centres undefined)	> 100 µM
CC(=O)N1C(Nc2nccs2)CCN1c1ccccc1 (centres undefined)	> 10 µM
O=c1[nH][nH]c(=O)c2c1ccc1oc3ccccc3c12	> 100 µM
O=C1CSC(c2ccccc2O)N1c1ccc(-n2c(-c3ccccc3)nc3ccccc3c2=O)cc1 (centres undefined)	83.6 µM
O=C1NC2(CCNCC2)Oc2ccccc21	> 100 µM
CC(C)OP(=O)(OC(C)C)C(C)(C)O	> 100 µM
COc1cc(C2c3cc4c(cc3C(=O)C3CCC(=O)N32)OCO4)cc(OC)c1O (centres undefined)	> 50 µM

Tested on: BT-549 breast
Assay: growth of human tumour cells (NCI), 48 h

Compound	TGI
CCCCCCCCCCCCCCCCNC(=O)/C(=C\c1ccc(Cl)c(Cl)c1)NC(=O)c1ccccc1	> 100 µM
O=C(Nc1ccccc1)OCCN=C1c2ccccc2CCc2ccccc21	42.1 µM
CC(C)[C@H]1NC(=O)[C@H]2N=C(S[C@H]2C)[C@@H]2CCCN2C(=O)[C@H](Cc2ccccc2)NC(=O)[C@@H]2CSC(=N2)[C@@H](Cc2ccccc2)NC(=O)[C@@H]2CSC1=N2	> 50 µM
O=C(Cn1c2ccc(Br)cc2c2nc3ccccc3nc21)Nc1ccccc1	> 100 µM
COC(=O)/C=C/[C@@H]1[C@H](C)N1S(=O)(=O)c1ccc(C)cc1 (some centres undefined)	> 100 µM
COc1cc([C@@H]2c3cc4c(cc3[C@@H](Nc3ccc(Cl)cc3C(=O)c3ccccc3)[C@H]3COC(=O)[C@H]23)OCO4)cc(OC)c1OC	> 100 µM
Cc1cc(O)c(/C=N/C(=S)Nc2ccc(S(N)(=O)=O)cc2)c(=O)o1	> 100 µM
Cc1nn(C(=O)c2ccncc2)c2c1C(c1ccccc1[N+](=O)[O-])SC(N)=N2 (centres undefined)	> 10 µM
Cn1nnc2c3c(N(CCO)CCO)ccnc3ccc21	> 100 µM
CC(Oc1ccccc1Cl)C(=O)NN1C(=O)CC(=O)N(c2ccc(Cl)cc2)C1=S (centres undefined)	> 100 µM
Cc1ccc(S(=O)(=O)N2CCSCCSCCSCCN(S(=O)(=O)c3ccc(C)cc3)CC2)cc1	> 100 µM
CC(Oc1ccc(Cl)cc1Cl)C(=O)NN1C(=O)CC(=O)N(c2ccccc2)C1=S (centres undefined)	> 100 µM
CC(=O)/C(=C\I)c1ccccc1	3.39 µM
CCOC(=O)c1c[nH]c(C(=O)C=[N+]=[N-])c1C1CCN(CC)C1=S (centres undefined)	> 100 µM
CC(=O)N1C(Nc2nccs2)CCN1c1ccccc1 (centres undefined)	> 10 µM
O=c1[nH][nH]c(=O)c2c1ccc1oc3ccccc3c12	> 100 µM
O=C1CSC(c2ccccc2O)N1c1ccc(-n2c(-c3ccccc3)nc3ccccc3c2=O)cc1 (centres undefined)	61.5 µM
O=C1NC2(CCNCC2)Oc2ccccc21	> 100 µM
CC(C)OP(=O)(OC(C)C)C(C)(C)O	> 100 µM
COc1cc(C2c3cc4c(cc3C(=O)C3CCC(=O)N32)OCO4)cc(OC)c1O (centres undefined)	> 50 µM

Tested on: CCRF-CEM leukemia
Assay: growth of human tumour cells (NCI), 48 h

Compound	TGI
O=C(Nc1ccccc1)OCCN=C1c2ccccc2CCc2ccccc21	55.7 µM
CC(C)[C@H]1NC(=O)[C@H]2N=C(S[C@H]2C)[C@@H]2CCCN2C(=O)[C@H](Cc2ccccc2)NC(=O)[C@@H]2CSC(=N2)[C@@H](Cc2ccccc2)NC(=O)[C@@H]2CSC1=N2	46.4 µM
O=C(Cn1c2ccc(Br)cc2c2nc3ccccc3nc21)Nc1ccccc1	> 100 µM
COC(=O)/C=C/[C@@H]1[C@H](C)N1S(=O)(=O)c1ccc(C)cc1 (some centres undefined)	> 100 µM
COc1cc([C@@H]2c3cc4c(cc3[C@@H](Nc3ccc(Cl)cc3C(=O)c3ccccc3)[C@H]3COC(=O)[C@H]23)OCO4)cc(OC)c1OC	> 100 µM
Cc1nn(C(=O)c2ccncc2)c2c1C(c1ccccc1[N+](=O)[O-])SC(N)=N2 (centres undefined)	> 10 µM
Cn1nnc2c3c(N(CCO)CCO)ccnc3ccc21	> 100 µM
CC(=O)/C(=C\I)c1ccccc1	5.19 µM
CC(=O)N1C(Nc2nccs2)CCN1c1ccccc1 (centres undefined)	> 10 µM
O=c1[nH][nH]c(=O)c2c1ccc1oc3ccccc3c12	> 100 µM
O=C1CSC(c2ccccc2O)N1c1ccc(-n2c(-c3ccccc3)nc3ccccc3c2=O)cc1 (centres undefined)	> 100 µM
O=C1NC2(CCNCC2)Oc2ccccc21	> 100 µM
CC(C)OP(=O)(OC(C)C)C(C)(C)O	> 100 µM
COc1cc(C2c3cc4c(cc3C(=O)C3CCC(=O)N32)OCO4)cc(OC)c1O (centres undefined)	> 50 µM

Tested on: EKVX NSCLC
Assay: growth of human tumour cells (NCI), 48 h

Compound	TGI
CCCCCCCCCCCCCCCCNC(=O)/C(=C\c1ccc(Cl)c(Cl)c1)NC(=O)c1ccccc1	> 100 µM
O=C(Nc1ccccc1)OCCN=C1c2ccccc2CCc2ccccc21	> 100 µM
